SMILES strings stand for the structures.

We go through nine molecules from patent publication US9034918B2, “Composition including at least one trans-cinnamaldehyde and the use thereof in the treatment of bacterial infections, specifically in the treatment of nosocomial infections” (SEPTEOS, priority 2009, dated 2015).

Holding throughout (experiment): Antibiogram by diffusion technique (CA-SFM 2008)
Type in all cases: cell-based

Experiment [1] has as its system Enterococcus faecium (9001). The conditions noted are these: strain 9001. From the text: (§1) Three clinical categories were selected for interpretation of the in vitro sensitivity tests: sensitive (S), resistant (R) and intermediate (I). • The strains categorized S are those for which the probability of therapeutic success is high in the case of treatment by systemic route with the dosing schedule recommended in the summary of product characteristics (SPC) prepared by the French Health Products Safety Agency (AFSSAPS). • The strains categorized R are those for which there is a high probability of therapeutic failure regardless of treatment type and antibiotic dose. • The strains categorized I are those for which therapeutic success cannot be predicted. These strains form a heterogeneous group for which the results obtained in vitro are not predictive of therapeutic success. […] The intermediate category is also a buffer zone which takes into account technical and biological uncertainties.
(§2) The sensitivity of strains to antibiotics was determined by a diffusion technique according to the 2008 recommendations by the Antibiogram Committee of the French Microbiology Society (CA-SFM).
(§3) In terms of critical concentrations and diameters, strains are categorized as follows: • sensitive (S): strains for which the MIC of the antibiotic tested is less than or equal to the lower critical concentration c, which is equivalent to a diameter greater than or equal to the critical diameter D; • resistant (R): strains for which the MIC of the antibiotic tested are greater than the upper critical concentration C, corresponding to a diameter less than the critical diameter d; • intermediate sensitivity (I): strains for which the MIC of the antibiotic tested and the corresponding diameter are between the two critical concentrations and the two critical diameters.
(§4) The tests were carried out on Mueller-Hinton agar. An inoculum adjusted to 0.5 on the McFarland scale is then diluted to 1/100. Petri dishes are inoculated by swabbing. The dishes are read after 24 hours of incubation at 37° C.
(§5) The raw results are then interpreted according to the interpretative reading rules of the CA-SFM.

For experiment [2], the system named is golden staph (S. aureus) strain 8240.
Excerpt: as §1, §2, §3, §4, §5

The test system of experiment [3] is golden staph (S. aureus) strain 8239.
Excerpt: as §1, §2, §3, §4, §5

Experiment [4] deals with golden staph (S. aureus) strain 8147.
Excerpt: as §1, §2, §3, §4, §5

In a further experiment the test system is Enterococcus strain 8152. Set-up: Diameter: unit not given here.
Excerpt: as §1, §2, §3, §4, §5

The test system of the next experiment is Enterococcus strain 8153. Further details: Diameter: unit not given here.
Excerpt: as §1, §2, §3, §4, §5

For `CC[C@H]1OC(=O)[C@H](C)[C@@H](O[C@H]2C[C@@](C)(OC)[C@@H](O)[C@H](C)O2)[C@H](C)[C@@H](O[C@@H]2O[C@H](C)C[C@H](N(C)C)[C@H]2O)[C@](C)(O)C[C@@H](C)C(=O)[C@H](C)[C@@H](O)[C@]1(C)O` [Erythro], the Category entry in experiment [1] is on record as “R”.
For the molecule `CN[C@H](CC(C)C)C(=O)N[C@H]1C(=O)N[C@@H](CC(N)=O)C(=O)N[C@H]2C(=O)N[C@H]3C(=O)N[C@H](C(=O)N[C@H](C(=O)O)c4cc(O)cc(O)c4-c4cc3ccc4O)[C@H](O)c3ccc(c(Cl)c3)Oc3cc2cc(c3O[C@@H]2O[C@H](CO)[C@@H](O)[C@H](O)[C@H]2O[C@H]2C[C@](C)(N)[C@H](O)[C@H](C)O2)Oc2ccc(cc2Cl)[C@H]1O` [Vanco], the Category result in experiment [1] is “R”.
The same measure, in the same setting: the same measure for `CN(C)[C@@H]1C(O)=C(C(N)=O)C(=O)[C@@]2(O)C(O)=C3C(=O)c4c(O)cccc4[C@@](C)(O)[C@H]3C[C@@H]12` [Tetra]: “S”.
On the same count and under the same terms, the same measure for `CN[C@@H]1[C@H](O[C@H]2[C@H](O[C@H]3[C@H](O)[C@@H](O)[C@H](N=C(N)N)[C@@H](O)[C@@H]3N=C(N)N)O[C@@H](C)[C@]2(O)C=O)O[C@@H](CO)[C@H](O)[C@H]1O` [Strepto HC]: “R”; for `O=C(N[C@H](CO)[C@H](O)c1ccc([N+](=O)[O-])cc1)C(Cl)Cl` [Chloram]: “S”.
On the same count and under the same terms, the same measure for `COc1c(N2C[C@@H]3CCCN[C@@H]3C2)c(F)cc2c(=O)c(C(=O)O)cn(C3CC3)c12` [Moxiflo]: “R”; for `CC1(C)S[C@@H]2[C@H](NC(=O)[C@H](N)c3ccccc3)C(=O)N2[C@H]1C(=O)O` [Ampi]: “R”.
Consider `CC(=O)NC[C@H]1CN(c2ccc(N3CCOCC3)c(F)c2)C(=O)O1` [Linezolid], for which the Category result in experiment [1] is reported as “S”.
As to `CCC[C@@H]1C[C@@H](C(=O)N[C@@H]([C@H]2O[C@H](SC)[C@H](O)[C@@H](O)[C@H]2O)[C@H](C)Cl)N(C)C1` [Clindamycin], the Cat. result in experiment [2], in experiment [3] and in experiment [4] was “S” throughout. For the same molecule, the D amounted to 30 in experiment [2], 31 in experiment [3] and 29 in experiment [4]. Further, the Category result (in the experiment with Enterococcus strain 8152; with Enterococcus strain 8153; in experiment [1]) was “R” throughout. The Diameter with Enterococcus strain 8152 and with Enterococcus strain 8153 was 0 throughout.
